PMC6586119, “Synthesis and biological evaluation of novel 8-substituted quinoline-2-carboxamides as carbonic anhydrase inhibitors” (Journal of Enzyme Inhibition and Medicinal Chemistry, 2019)
Where two headings read alike, the source gives them in different places.

Experiments:
Assay in all cases: stopped-flow CO2 hydration assay
Assay type in all cases: biochemical
hCA II = target: T1, hCA II (Homo sapiens, UniProt P00918)
T1 construct: gene CA2; recombinant, cytosolic isoform
Excerpt: stopped-flow CO2 hydration assay on hCA II

hCA IV = target: T2, hCA IV (Homo sapiens, UniProt P22748)
T2 construct: gene CA4
T2 sequence (P22748 19-284): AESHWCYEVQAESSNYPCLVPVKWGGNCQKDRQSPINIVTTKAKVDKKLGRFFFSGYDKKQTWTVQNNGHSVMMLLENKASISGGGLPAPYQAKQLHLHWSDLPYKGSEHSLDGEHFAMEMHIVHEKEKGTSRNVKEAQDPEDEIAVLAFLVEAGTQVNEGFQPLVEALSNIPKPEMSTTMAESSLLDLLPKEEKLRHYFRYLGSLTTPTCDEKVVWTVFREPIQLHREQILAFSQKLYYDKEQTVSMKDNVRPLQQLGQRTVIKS
Excerpt: stopped-flow CO2 hydration assay on hCA IV

hCA I = target: T3, hCA I (Homo sapiens, UniProt P00915)
T3 construct: gene CA1; recombinant, cytosolic isoform
T3 sequence (P00915 2-261): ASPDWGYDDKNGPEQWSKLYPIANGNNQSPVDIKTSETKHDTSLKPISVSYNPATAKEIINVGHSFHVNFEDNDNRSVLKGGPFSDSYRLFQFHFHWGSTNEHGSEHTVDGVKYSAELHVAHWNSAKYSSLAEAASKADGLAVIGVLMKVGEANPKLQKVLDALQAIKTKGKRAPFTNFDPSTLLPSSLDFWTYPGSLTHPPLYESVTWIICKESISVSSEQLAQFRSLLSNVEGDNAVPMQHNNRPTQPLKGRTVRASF
Excerpt: stopped-flow CO2 hydration assay on hCA I

[1] = CO2 hydration, […] Hepes pH […] °C, […] Na2SO4 or NaClO4, […] min preincubation

Structure (SMILES)	Ki (hCA II; [1])	Ki (hCA IV)	Ki (hCA I; [1])	Ki (hCA II)	Ki (hCA I)
Cc1cc(C)cc(COc2cccc3ccc(C(=O)Nc4ccc(S(N)(=O)=O)cc4)nc23)c1 [5d, 8-((3,5-Dimethylbenzyl)oxy)-N-(4-sulfamoylphenyl)quinoline-2-carboxamide]		6760 nM		8760 nM	8130 nM
NS(=O)(=O)c1ccc(NC(=O)c2ccc3cccc(OCc4ccccc4)c3n2)cc1 [5c, 8-(Benzyloxy)-N-(4-sulfamoylphenyl)quinoline-2-carboxamide]		6410 nM		8340 nM	5290 nM
NS(=O)(=O)c1ccc(NC(=O)c2ccc3cccc(OCc4ccccc4Br)c3n2)cc1 [5b, 8-((2-Bromobenzyl)oxy)-N-(4-sulfamoylphenyl)quinoline-2-carboxamide]		3930 nM		85.7 nM	444 nM

These reach a lower Ki (hCA IV). Values come first.

Ki (hCA II; [1])	Ki (hCA IV)	Ki (hCA I; [1])	Ki (hCA II)	Ki (hCA I)	Structure (SMILES)
33 nM	1750 nM	61.9 nM			COc1cccc2ccc(C(=O)Nc3ccc(S(N)(=O)=O)cc3)nc12 [5h, 8-Methoxy-N-(4-sulfamoylphenyl)quinoline-2-carboxamide]
	787 nM		957 nM	6560 nM	NS(=O)(=O)c1ccc(NC(=O)c2ccc3cccc(OCc4cc(F)ccc4F)c3n2)cc1 [5f, 8-((2,5-Difluorobenzyl)oxy)-N-(4-sulfamoylphenyl)quinoline-2-carboxamide]
	807 nM		5170 nM	6470 nM	NS(=O)(=O)c1ccc(NC(=O)c2ccc3cccc(OCc4cccc(Cl)c4)c3n2)cc1 [5e, 8-((3-Chlorobenzyl)oxy)-N-(4-sulfamoylphenyl)quinoline-2-carboxamide]
	657 nM		5110 nM	6910 nM	C#CCOc1cccc2ccc(C(=O)Nc3ccc(S(N)(=O)=O)cc3)nc12 [5g, 8-(Prop-2-yn-1-yloxy)-N-(4-sulfamoylphenyl)quinoline-2-carboxamide]
	691 nM		88.4 nM	641 nM	NS(=O)(=O)c1ccc(NC(=O)c2ccc3cccc(OCc4ccc([N+](=O)[O-])cc4)c3n2)cc1 [5a, 8-((4-Nitrobenzyl)oxy)-N-(4-sulfamoylphenyl)quinoline-2-carboxamide]
